One block for each molecule: values may come before it.
Experiments:
[1] = Stability of 5-position modified 2′-deoxycytidine nucleosides to nitrite solution (nitrite-mediated deamination), LC-MS time course; assay type: physicochemical
Description: A series of 5-position modified nucleosides were tested. Each was incubated at room temperature in 700 mM NaNO2, 1 M acetate buffer pH 5.5 and the stability assayed by LC-MS over a time course. […] Electron withdrawing substituents such as the fluoro or alkynyl substituents increase stability. Electron donating substituents such as methyl and hydroxymethyl decrease stability.
LC-MS was used to monitor nucleosides throughout a time course of incubation in 700 mM sodium nitrite at pH 5.5. Integration of UV chromatograms was performed, and the percentage of starting nucleoside plotted.
In addition to monitoring the persistence of the starting material UV peak, the deamination products can be monitored. Deamination products were identified by their mass signals and appearance under nitrite incubation (FIG. 5).

[2] = Stability test of 2′-deoxycytidine and 2′-deoxy-5-fluorocytidine to methoxylamine (1× ORS), LC/MS; assay type: physicochemical; conditions: 1× ORS (methoxylamine, pH 5.5 acetate), room temperature (FIG. 9)
Description: Stability Test of 2′-Deoxycytidine and 2′-Deoxy-5-Fluorocytidine to methoxylamine Oxime removal solution buffer (2× ORS) was prepared from methyoxylamine hydrochloride (60 mg, 0.71 mmol), water (200 μL), pH 5.5 sodium acetate (200 μL) and 10 M sodium hydroxide (53.4 μL) and additional water (1.4 mL). A previously frozen sample of this buffer was further diluted with water by a factor of two to yield 1× ORS. Samples of 2′-deoxycytidine (˜0.5 mg) and 2′-deoxy-5-fluorocytidine (˜0.5 mg) were dissolved in 1 mL aliquots of the buffer. The samples were analysed by LC/MS immediately after making up the samples and at intervals while stored together at room temperature. Appearance of the reaction products 2′-deoxy-4(N)-methoxy cytidine (1) and 2′-deoxy-4(N)-methoxy-5-fluorocytidine (2) and a corresponding loss of starting material was observed. The corresponding loss of starting material relative to the reaction products is plotted on the graph below.
HPLC Method for LC/MS Analysis

rate of nitrite-mediated deamination, fold lower than the canonical deoxycytidine analogue ([1]; 700 mM pH 5.5 nitrite, room temperature (FIG. 1)): 4 fold
stability to methoxylamine treatment relative to canonical dC [2]: ~10 ×
SMILES: Nc1nc(=O)n([C@H]2C[C@H](O)[C@@H](CO)O2)cc1F [5-fluoro-2′-deoxycytidine]

rate of nitrite-mediated deamination, fold greater than the canonical deoxycytidine analogue ([1]; 700 mM pH 5.5 nitrite, room temperature (FIG. 2)): 2 fold
SMILES: Cc1cn([C@H]2C[C@H](O)[C@@H](CO)O2)c(=O)nc1N [5-methyl-2′deoxycytidine, reference compound]

stability to nitrite solution (in words) ([1]; 700 mM NaNO2, 1 M acetate buffer pH 5.5, room temperature, relative to parent deoxycytidine): increased stability
SMILES: CC#Cc1cn([C@H]2C[C@H](O)[C@@H](CO)O2)c(=O)nc1N [5-propynyl, 5-propynyl-2′-deoxycytidine]
